Values of other authors as cited in patent US20230226006A1, “Compositions for the Treatment of Dry Eye and Methods of Use Thereof” (The Schepens Eye Research Institute, Inc., priority 2017, published 2023).

For C=CCN=C=S [Allyl isothiocyanate, 3-Isothiocyanato-1-propene], the “Solubility in organic solvents” value (organic solvents) is listed as “well soluble” and the Solubility in water (water) is listed as “slightly soluble”.
